Consider 13 compounds from the NIST ThermoML archive (doi:10.1016/j.jct.2018.01.003).

Numbers after ± are expanded uncertainties.

The conditions of series [1]: 101.33 kPa, Liquid, Vibrating tube method.
Series [2] can be described thus: activity coefficient (dimensionless); of the first substance listed, at infinite dilution; xn = mol fraction of the nth substance listed. The note with it: 101.33 kPa, Liquid, Chromatography, x1 = 0.

For orientation: mass density means mass per unit of volume.

With `CCCCCCCCCCCCCC[P+](CCCCCC)(CCCCCC)CCCCCC.N#CC(=C=[N-])C#N` [trihexyltetradecylphosphonium tricyanomethanide], the mass density in series [1] (298.15 K) was found to be 900.77 ± 3.7 kg/m3; in series [1] (308.15 K), 894.91 ± 3.7 kg/m3; in series [1] (318.15 K), 889.05 ± 3.7 kg/m3; in series [1] (328.15 K), 883.23 ± 3.7 kg/m3; in series [1] (338.15 K) it was 877.43 ± 3.7 kg/m3; in series [1] (348.15 K), 871.66 ± 3.7 kg/m3. The mass density in series [1] (358.15 K) is 865.92 ± 3.6 kg/m3; in series [1] (368.15 K), 860.2 ± 3.6 kg/m3.

As to `CCCO` [propan-1-ol] + CCCCCCCCCCCCCC[P+](CCCCCC)(CCCCCC)CCCCCC.N#CC(=C=[N-])C#N, the activity coefficient in series [2] (328.15 K) was found to be 0.426 ± 0.035; in series [2] (338.15 K), 0.437 ± 0.035; in series [2] (348.15 K), 0.447 ± 0.036; in series [2] (358.15 K), 0.457 ± 0.036; in series [2] (368.15 K) it was 0.465 ± 0.036.

Take `C1COCCO1` [1,4-dioxane] + CCCCCCCCCCCCCC[P+](CCCCCC)(CCCCCC)CCCCCC.N#CC(=C=[N-])C#N: the activity coefficient in series [2] (328.15 K) turned out to be 0.578 ± 0.041; in series [2] (338.15 K), 0.594 ± 0.042; in series [2] (348.15 K), 0.608 ± 0.043; in series [2] (358.15 K), 0.628 ± 0.043; in series [2] (368.15 K) it was 0.642 ± 0.044.

Consider `C=CCCCCCCCC` [1-decene] + CCCCCCCCCCCCCC[P+](CCCCCC)(CCCCCC)CCCCCC.N#CC(=C=[N-])C#N, for which the activity coefficient in series [2] (328.15 K) turned out to be 2.32 ± 0.16; in series [2] (338.15 K) it was 2.37 ± 0.16; in series [2] (348.15 K), 2.41 ± 0.16; in series [2] (358.15 K), 2.45 ± 0.17; in series [2] (368.15 K) it was 2.49 ± 0.17.

As for `CC(C)OC(C)C` [diisopropyl ether] + CCCCCCCCCCCCCC[P+](CCCCCC)(CCCCCC)CCCCCC.N#CC(=C=[N-])C#N, the activity coefficient in series [2] (328.15 K) came to 1.5 ± 0.1; in series [2] (338.15 K), 1.54 ± 0.1; in series [2] (348.15 K), 1.58 ± 0.1; in series [2] (358.15 K) it was 1.62 ± 0.11; in series [2] (368.15 K), 1.66 ± 0.11.

With `CCC(C)CC` [3-methylpentane] + CCCCCCCCCCCCCC[P+](CCCCCC)(CCCCCC)CCCCCC.N#CC(=C=[N-])C#N, the activity coefficient in series [2] (328.15 K) came to 1.69 ± 0.11; in series [2] (338.15 K), 1.72 ± 0.12; in series [2] (348.15 K), 1.75 ± 0.12; in series [2] (358.15 K), 1.78 ± 0.12; in series [2] (368.15 K) it was 1.8 ± 0.1.

Regarding `CO` [methanol] + CCCCCCCCCCCCCC[P+](CCCCCC)(CCCCCC)CCCCCC.N#CC(=C=[N-])C#N, the activity coefficient in series [2] (328.15 K) came to 0.39 ± 0.034; in series [2] (338.15 K), 0.399 ± 0.034; in series [2] (348.15 K), 0.408 ± 0.034; in series [2] (358.15 K) it was 0.417 ± 0.035; in series [2] (368.15 K), 0.424 ± 0.035.

Turning to `C=CCCCCC` [1-heptene] + CCCCCCCCCCCCCC[P+](CCCCCC)(CCCCCC)CCCCCC.N#CC(=C=[N-])C#N, the activity coefficient turned out to be 1.56 ± 0.1 in series [2] (328.15 K); 1.6 ± 0.11 in series [2] (338.15 K); 1.64 ± 0.11 in series [2] (348.15 K); 1.67 ± 0.11 in series [2] (358.15 K); 1.7 ± 0.11 in series [2] (368.15 K).

For the compound `CCCCO` [butan-1-ol] + CCCCCCCCCCCCCC[P+](CCCCCC)(CCCCCC)CCCCCC.N#CC(=C=[N-])C#N, the activity coefficient turned out to be 0.424 ± 0.035 in series [2] (328.15 K); 0.435 ± 0.035 in series [2] (338.15 K); 0.445 ± 0.036 in series [2] (348.15 K); 0.455 ± 0.036 in series [2] (358.15 K); 0.464 ± 0.036 in series [2] (368.15 K).

`CCCCCCCCC` [nonane] + CCCCCCCCCCCCCC[P+](CCCCCC)(CCCCCC)CCCCCC.N#CC(=C=[N-])C#N: the activity coefficient in series [2] (328.15 K) was found to be 2.66 ± 0.18; in series [2] (338.15 K), 2.67 ± 0.18; in series [2] (348.15 K), 2.69 ± 0.18; in series [2] (358.15 K), 2.7 ± 0.18; in series [2] (368.15 K), 2.71 ± 0.18.

In the case of `C1=CCCCC1` [cyclohexene] + CCCCCCCCCCCCCC[P+](CCCCCC)(CCCCCC)CCCCCC.N#CC(=C=[N-])C#N, the activity coefficient in series [2] (328.15 K) amounted to 0.906 ± 0.057; in series [2] (338.15 K), 0.922 ± 0.058; in series [2] (348.15 K) it was 0.938 ± 0.059; in series [2] (358.15 K), 0.958 ± 0.06; in series [2] (368.15 K), 0.973 ± 0.061.

Regarding `CCO` [ethanol] + CCCCCCCCCCCCCC[P+](CCCCCC)(CCCCCC)CCCCCC.N#CC(=C=[N-])C#N, the activity coefficient was determined as 0.462 ± 0.036 in series [2] (328.15 K); 0.471 ± 0.037 in series [2] (338.15 K); 0.477 ± 0.037 in series [2] (348.15 K); 0.485 ± 0.037 in series [2] (358.15 K); 0.49 ± 0.037 in series [2] (368.15 K).

Regarding `CCC[N+](=O)[O-]` [1-nitropropane] + CCCCCCCCCCCCCC[P+](CCCCCC)(CCCCCC)CCCCCC.N#CC(=C=[N-])C#N, the activity coefficient amounted to 0.557 ± 0.04 in series [2] (338.15 K), 0.566 ± 0.041 in series [2] (348.15 K), 0.577 ± 0.041 in series [2] (358.15 K) and 0.585 ± 0.041 in series [2] (368.15 K).
